From patent US20250188075A1, “SUBSTITUTED HETEROCYCLIC CSNK1 INHIBITORS” (The Broad Institute, Inc., priority 2022, published 2025) come the findings set out here.

Data set [1] concerns the target human CSNK1A1 (Homo sapiens (Human), UniProt P48729). As to the kind of experiment: CSNK1A1 high ATP assay (ADP-Glo, 1 mM ATP). In kind it is biochemical. Particulars: median, read-out: CSNK1A1 High ATP assay IC50 [mol/l] (median). As for the experimental part: CSNK1A1-inhibitory activity of compounds of the present invention in presence of 1 mM adenosine-tri-phosphate (ATP) was quantified employing the CSNK1A1-high-ATP-assay as described in the following paragraphs. In essence, the enzyme activity is measured by quantification of the adenosine-di-phosphate (ADP), which is generated as a co-product of the enzyme reaction, via the “ADP-Glo™ Kinase Assay” kit from the company Promega. This detection system works as follows: In a first step the ATP not consumed in the kinase reaction is quantitatively converted to CAMP employing an adenylate cyclase (“ADP-Glo-reagent”), then the adenylate cyclase is stopped and the ADP generated in the kinase reaction converted to ATP which generates in a luciferase-based reaction a glow-luminescence signal (“Kinase Detection Reagent”).
Recombinant fusion protein of N-terminal Glutathion-S-Transferase (GST) and full-length human CSNK1A1, expressed by baculovirus infected insect cells and purified via Glutathion affinity chromatography, was purchased from Life Technologies (product no. PV4174) and used as enzyme. As substrate for the kinase reaction the biotinylated peptide biotin-Ahx-KRRRAL-pS-VASLPGL (C-terminus in amide form) was used which can be purchased e.g. from the company Biosyntan (Berlin-Buch, Germany).
For the assay 50 nl of a 100 fold concentrated solution of the test compound in DMSO was pipetted into a white low volume 384-well microtiter plate (Greiner Bio-One, Frickenhausen, Germany), 2 μL of a solution of CSNK1A1 in aqueous assay buffer [50 mM HEPES pH 7.5, 10% (v/v) glycerol, 10 mM MgCl2, 50 mM NaCl, 1 mM dithiothreitol, 0.01% (w/v) bovine serum albumin, 0.01% (v/v) Triton X-100] were added and the mixture was incubated for 15 min at 22° C. to allow pre-binding of the test compounds to the enzyme before the start of the kinase reaction. Then the kinase reaction was started by the addition of 3 μL of a solution of ATP (1.67 mM=>final conc. in the 5 μL assay volume is 1 mM) and peptide substrate (167 μM=>final conc. in the 5 μL assay volume is 100 μM) in assay buffer and the resulting mixture was incubated for a reaction time of 30 min at 22° C. The concentration of CSNK1A1 was adjusted depending of the activity of the enzyme lot and was chosen appropriate to have the assay in the linear range, a typical concentration is about 0.4 ng/μL. The reaction was stopped by the addition of 2.5 μL of “ADP-Glo-reagent” (1:1.5 fold diluted with water) and the resulting mixture was incubated at 22° C. for 1 h to convert the ATP not consumed in the kinase reaction completely to CAMP. Subsequently 2.5 μL of the “kinase detection reagent” (1.2 fold more concentrated than recommended by the producer) were added, the resulting mixture was incubated at 22° C. for 1 h and then the luminescence measured with a suitable measurement instrument (e.g. Viewlux™ from Perkin-Elmer). The amount of emitted light was taken as a measure for the amount of ADP generated and thereby for the activity of the CSNK1A1.
(§1) The data were normalised (enzyme reaction without inhibitor=0% inhibition, all other assay components but no enzyme=100% inhibition).

The nature of data set [2]: Solubility assay (thermodynamic solubility). It is filed as physicochemical. The following applies: thermodynamic from solid, aqueous buffer, mean. Here is the method: Solubility of solid compound in aqueous buffer was determined by an equilibrium shake flask method. A saturated solution of drug in solvent (˜2 mg/ml solvent) was prepared and the solution was mixed for 24 h to ensure that equilibrium has been reached. The solution was centrifuged to remove the insoluble fraction and the concentration of the compound in solution was determined by HPLC-UV using a standard calibration curve (Kerns, E. H. et al., Solubility Methods in: Drug-like Properties: Concepts, Structure Design and Methods, p 276-286. Burlington, MA: Academic Press 2008).

Data set [3] has as its target human CSNK1G3 (Homo sapiens (Human), UniProt Q9Y6M4). In words: CSNK1G3 assay (ADP-Glo). It is filed as biochemical. The following applies: median, read-out: CSNK1G IC50 [mol/l] (median). As for the experimental part: CSNK1G3-inhibitory activity of compounds of the present invention in presence of 1 μM adenosine-tri-phosphate (ATP) was quantified employing the CSNK1G3 assay as described in the following paragraphs. In essence, the enzyme activity is measured by quantification of the adenosine-di-phosphate (ADP), which is generated as a co-product of the enzyme reaction, via the “ADP-Glo™ Kinase Assay” kit from the company Promega. This detection system works as follows: In a first step the ATP not consumed in the kinase reaction is quantitatively converted to CAMP employing an adenylate cyclase (“ADP-Glo-reagent”), then the adenylate cyclase is stopped and the ADP generated in the kinase reaction converted to ATP which generates in a luciferase-based reaction a glow-luminescence signal (“Kinase Detection Reagent”).
Recombinant fusion protein of N-terminal Glutathion-S-Transferase (GST) and full-length human CSNK1G3, expressed by baculovirus infected insect cells and purified via Glutathion affinity chromatography, was purchased from Life Technologies (product no. PV3838) and used as enzyme. As substrate for the kinase reaction the biotinylated peptide biotin-Ahx-KRRRAL-pS-VASLPGL (C-terminus in amide form) was used which can be purchased e.g. from the company Biosyntan (Berlin-Buch, Germany).
For the assay 50 nl of a 100 fold concentrated solution of the test compound in DMSO was pipetted into a white 1536-well microtiter plate (Greiner Bio-One, Frickenhausen, Germany), 2 μL of a solution of CSNK1G3 in aqueous assay buffer [50 mM HEPES pH 7.5, 10% (v/v) glycerol, 10 mM MgCl2, 50 mM NaCl, 1 mM dithiothreitol, 0.01% (w/v) bovine serum albumin, 0.01% (v/v) Triton X-100] were added and the mixture was incubated for 15 min at 22° C. to allow pre-binding of the test compounds to the enzyme before the start of the kinase reaction. Then the kinase reaction was started by the addition of 3 μL of a solution of ATP ([…]=>final conc. in the 5 μL assay volume is 1 M) and peptide substrate (50 μM=>final conc. in the 5 μL assay volume is 30 μM) in assay buffer and the resulting mixture was incubated for a reaction time of 30 min at 22° C. The concentration of CSNK1G3 was adjusted depending of the activity of the enzyme lot and was chosen appropriate to have the assay in the linear range, a typical concentration is about 0.06 ng/μL. The reaction was stopped by the addition of 2.5 μL of “ADP-Glo-reagent” (1:1.5 fold diluted with water) and the resulting mixture was incubated at 22° C. for 1 h to convert the ATP not consumed in the kinase reaction completely to CAMP. Subsequently 2.5 μL of the “kinase detection reagent” (1.2 fold more concentrated than recommended by the producer) were added, the resulting mixture was incubated at 22° C. for 1 h and then the luminescence measured with a suitable measurement instrument (e.g. Viewlux™ from Perkin-Elmer). The amount of emitted light was taken as a measure for the amount of ADP generated and thereby for the activity of the CSNK1G3.
as §1
A general note: In ADP-Glo the light output rises with the ADP produced.

Setting [4] is: read-out: Thermodynamic Solubility [mg/l] (mean).
The mark [5] stands for this setting: read-out: Thermodynamic Solubility [μmol/L] (mean).

Read-outs that look alike come from different tables or passages of the source.

Sequence of human CSNK1A1 (P48729 whole entry): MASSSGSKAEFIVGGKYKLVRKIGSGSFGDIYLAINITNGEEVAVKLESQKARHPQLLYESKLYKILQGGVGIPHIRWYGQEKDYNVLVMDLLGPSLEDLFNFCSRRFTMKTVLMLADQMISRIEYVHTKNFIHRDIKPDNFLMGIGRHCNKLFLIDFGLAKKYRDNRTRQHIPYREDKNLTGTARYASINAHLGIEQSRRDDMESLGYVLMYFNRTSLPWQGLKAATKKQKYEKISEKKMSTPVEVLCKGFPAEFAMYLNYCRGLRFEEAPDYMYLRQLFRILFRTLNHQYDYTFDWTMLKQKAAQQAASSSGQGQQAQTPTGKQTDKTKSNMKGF
Sequence of human CSNK1G3 (Q9Y6M4 whole entry): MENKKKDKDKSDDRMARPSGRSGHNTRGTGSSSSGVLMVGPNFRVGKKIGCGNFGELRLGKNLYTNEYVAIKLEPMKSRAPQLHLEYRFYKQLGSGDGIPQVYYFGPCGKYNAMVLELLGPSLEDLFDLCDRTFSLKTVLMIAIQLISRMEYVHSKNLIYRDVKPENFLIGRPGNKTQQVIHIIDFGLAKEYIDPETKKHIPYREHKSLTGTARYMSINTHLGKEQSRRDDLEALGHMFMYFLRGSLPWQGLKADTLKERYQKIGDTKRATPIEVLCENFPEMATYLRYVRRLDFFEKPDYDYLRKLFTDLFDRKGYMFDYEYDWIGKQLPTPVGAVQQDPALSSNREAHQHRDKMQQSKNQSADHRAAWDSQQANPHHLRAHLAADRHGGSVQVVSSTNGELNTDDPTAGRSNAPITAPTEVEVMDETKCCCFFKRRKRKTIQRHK

Take `O=C(Cc1cnc2ccccn12)Nc1cc(-c2[nH]c3cccnc3c2-c2ccccn2)ccn1` [Example 1, 2-imidazo[1,2-a]pyridin-3-yl-N-[4-[3-(2-pyridyl)-^1H-pyrrolo[3,2-b]pyridin-2-yl]-2-pyridyl]acetamide]: the IC50 in data set [1] stood at 38.5 nM; in data set [3], 71.7 nM. Besides, the values for the solubility thermodynamic at 24 h in data set [2] (setting [4]) and in data set [2] (setting [5]) were 9.6 mg/L and 21.6 µmol/L, respectively.
For `Cn1cc(CC(=O)Nc2cc(-c3[nH]c4cccnc4c3-c3ccccn3)ccn2)cn1` [Example 2, 2-(1-methylpyrazol-4-yl)-N-[4-[3-(2-pyridyl)-^1H-pyrrolo[3,2-b]pyridin-2-yl]-2-pyridyl]acetamide] the same measures were 31.6 nM, 102 nM, 85.2 mg/L and 208 µmol/L.
For `Cc1nc(CC(=O)Nc2cc(-c3[nH]c4cccnc4c3-c3ccccn3)ccn2)cs1` [Example 3, 2-(2-methylthiazol-4-yl)-N-[4-[3-(2-pyridyl)-^1H-pyrrolo[3,2-b]pyridin-2-yl]-2-pyridyl]acetamide] the same measures were 30.8 nM, 39.1 nM, 9.1 mg/L and 21.3 µmol/L.
For `O=C(Cc1cnco1)Nc1cc(-c2[nH]c3cccnc3c2-c2ccccn2)ccn1` [Example 4], the solubility thermodynamic at 24 h amounted to 25.2 mg/L in data set [2] (setting [4]) and 63.7 µmol/L in data set [2] (setting [5]).
With `Cn1cnc(CC(=O)Nc2cc(-c3[nH]c4cccnc4c3-c3ccccn3)ccn2)c1` [Example 5, 2-(1-methylimidazol-4-yl)-N-[4-[3-(2-pyridyl)-^1H-pyrrolo[3,2-b]pyridin-2-yl]-2-pyridyl]acetamide], the results for the IC50 in data set [1] and in data set [3] were 589 nM and 74.5 nM, respectively. For the same molecule, the solubility thermodynamic at 24 h is more than 409 mg/L in data set [2] (setting [4]) and more than 1000 µmol/L in data set [2] (setting [5]).
On to `O=C(Cc1cnc2ccccc2n1)Nc1cc(-c2[nH]c3cccnc3c2-c2ccccn2)ccn1` [Example 6, N-[4-[3-(2-pyridyl)-^1H-pyrrolo[3,2-b]pyridin-2-yl]-2-pyridyl]-2-quinoxalin-2-yl-acetamide], for which the values for the IC50 in data set [1] and in data set [3] were 6.06 nM and 7.89 nM, respectively.
As to `Cc1nn(C)cc1CC(=O)Nc1cc(-c2[nH]c3cccnc3c2-c2ccccn2)ccn1` [Example 9, 2-(1,3-dimethylpyrazol-4-yl)-N-[4-[3-(2-pyridyl)-^1H-pyrrolo[3,2-b]pyridin-2-yl]-2-pyridyl]acetamide], the results for the solubility thermodynamic at 24 h in data set [2] (setting [4]) and in data set [2] (setting [5]) were 1.3 mg/L and 3.07 µmol/L, respectively. The IC50 in data set [3] worked out at 51.2 nM.
In the same order, the values of `O=C(Cc1ccon1)Nc1cc(-c2[nH]c3cccnc3c2-c2ccccn2)ccn1` [Example 10, 2-isoxazol-3-yl-N-[4-[3-(2-pyridyl)-^1H-pyrrolo[3,2-b]pyridin-2-yl]-2-pyridyl]acetamide] are 15.4 mg/L, 38.9 µmol/L and 33 nM.
For `Cc1ocnc1CC(=O)Nc1cc(-c2[nH]c3cccnc3c2-c2ccccn2)ccn1` [Example 11, 2-(5-methyloxazol-4-yl)-N-[4-[3-(2-pyridyl)-^1H-pyrrolo[3,2-b]pyridin-2-yl]-2-pyridyl]acetamide] the same measures were 8.4 mg/L, 20.5 µmol/L and 120 nM.
Take `Cc1noc(C)c1CC(=O)Nc1cc(-c2[nH]c3cccnc3c2-c2ccccn2)ccn1` [Example 12, 2-(3,5-dimethylisoxazol-4-yl)-N-[4-[3-(2-pyridyl)-^1H-pyrrolo[3,2-b]pyridin-2-yl]-2-pyridyl]acetamide]: the IC50 in data set [1] was 66.9 nM; in data set [3], 62.6 nM. The solubility thermodynamic at 24 h is 9.9 mg/L in data set [2] (setting [4]) and 23.3 µmol/L in data set [2] (setting [5]).
Consider `Cc1ncc(CC(=O)Nc2cc(-c3[nH]c4cccnc4c3-c3ccccn3)ccn2)o1` [Example 24, 2-(2-methyloxazol-5-yl)-N-[4-[3-(2-pyridyl)-^1H-pyrrolo[3,2-b]pyridin-2-yl]-2-pyridyl]acetamide], for which the values for the solubility thermodynamic at 24 h in data set [2] (setting [4]) and in data set [2] (setting [5]) were 26.3 mg/L and 64.1 µmol/L, respectively. In addition, the IC50 in data set [3] was determined as 39.9 nM.
For `Cc1nc(CC(=O)Nc2cc(-c3[nH]c4cccnc4c3-c3ccccn3)ccn2)co1` [Example 25, 2-(2-methyloxazol-4-yl)-N-[4-[3-(2-pyridyl)-^1H-pyrrolo[3,2-b]pyridin-2-yl]-2-pyridyl]acetamide] the same measures were 23.1 mg/L, 56.3 µmol/L and 64.4 nM.
For `CC(C)n1ccc(CC(=O)Nc2cc(-c3[nH]c4cccnc4c3-c3ccccn3)ccn2)n1` [Example 28, 2-(1-isopropylpyrazol-3-yl)-N-[4-[3-(2-pyridyl)-^1H-pyrrolo[3,2-b]pyridin-2-yl]-2-pyridyl]acetamide] the same measures were less than 0.1 mg/L, less than 0.23 µmol/L and 20.4 nM.
As to `Cc1nocc1CC(=O)Nc1cc(-c2[nH]c3cccnc3c2-c2ccccn2)ccn1` [Example 30, 2-(3-methylisoxazol-4-yl)-N-[4-[3-(2-pyridyl)-^1H-pyrrolo[3,2-b]pyridin-2-yl]-2-pyridyl]acetamide], the results for the solubility thermodynamic at 24 h in data set [2] (setting [4]) and in data set [2] (setting [5]) were 5.8 mg/L and 14.1 µmol/L, respectively. Besides, the IC50 in data set [3] was 68.9 nM.
